In ChEMBL document CHEMBL4219085, “Discovery of isatin and 1H-indazol-3-ol derivatives as d-amino acid oxidase (DAAO) inhibitors” (Bioorg Med Chem, 2018):
Each block holds one molecule with its values, some of them ahead of it.

Assays:
D-amino-acid oxidase [1] = target: T1, D-amino-acid oxidase (Homo sapiens, UniProt P14920); experiment: Inhibition of human DAAO using D-KYN as substrate preincubated for 20 mins followed by substrate addition measured after 30 mins by FP-6300-based fluorescence spectrometry
Target sequence in this assay (P14920 whole entry): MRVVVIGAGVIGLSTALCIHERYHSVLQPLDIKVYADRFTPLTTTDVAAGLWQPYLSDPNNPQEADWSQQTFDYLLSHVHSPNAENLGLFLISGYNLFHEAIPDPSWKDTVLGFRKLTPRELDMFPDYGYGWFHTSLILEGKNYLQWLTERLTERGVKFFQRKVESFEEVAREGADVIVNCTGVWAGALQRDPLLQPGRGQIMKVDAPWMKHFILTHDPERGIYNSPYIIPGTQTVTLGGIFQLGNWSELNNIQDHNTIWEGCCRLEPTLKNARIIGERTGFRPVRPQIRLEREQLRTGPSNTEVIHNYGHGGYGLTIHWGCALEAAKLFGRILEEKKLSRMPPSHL

[2] = Dissociation constant, pKa of the compound by UV-spectrophotometric titration method; type: physicochemical
D-amino-acid oxidase [3] = target: D-amino-acid oxidase (Sus scrofa, UniProt P00371); experiment: Binding affinity to pig kidney DAAO by ITC method
D-amino-acid oxidase [4] = target: T1, D-amino-acid oxidase; experiment: Inhibition of human DAAO at 20 uM using D-KYN as substrate preincubated for 20 mins followed by substrate addition measured after 30 mins by FP-6300-based fluorescence spectrometry
Target sequence in this assay (P14920 whole entry, looked up): as the sequence (P14920 whole entry) above

D-amino-acid oxidase [5] = target: T1, D-amino-acid oxidase; experiment: Inhibition of DAAO (unknown origin)
Target sequence in this assay (P14920 whole entry): as above

[6] = Effective permeability of the compound after 4 hrs at pH 5.5 to 7.4 by PAMPA; type: ADME; details: read-out: Peff
[7] = Effective permeability of the compound assessed as membrane retention after 4 hrs at pH 5.5 to 7.4 by PAMPA; type: ADME; details: pH 5.5, 4 h
[8] = Effective permeability of the compound after 4 hrs at pH 6.5 to 7.4 by PAMPA; type: ADME; details: read-out: Peff
[9] = Effective permeability of the compound assessed as membrane retention after 4 hrs at pH 6.5 to 7.4 by PAMPA; type: ADME; details: pH 6.5, 4 h
[10] = Effective permeability of the compound after 4 hrs at pH 7.4 by PAMPA; type: ADME; details: read-out: Peff
[11] = Effective permeability of the compound assessed as membrane retention after 4 hrs at pH 7.4 by PAMPA; type: ADME; details: pH 7.4, 4 h
[12] = Elimination half life in NMRI mouse hepatic microsomes at 1 uM up to 90 mins by LC-MS/MS analysis; type: ADME, microsome; details: liver microsomes, read-out: beta t1/2
[13] = Intrinsic clearance in NMRI mouse hepatic microsomes at 1 uM up to 90 mins by LC-MS/MS analysis; type: ADME, microsome; details: liver microsomes, read-out: CLH
[14] = Elimination half life in NMRI mouse primary hepatocytes at 1 uM up to 240 mins by LC-MS/MS analysis; type: ADME, cell-based, Hepatocyte; details: read-out: beta t1/2
[15] = Intrinsic clearance in NMRI mouse primary hepatocytes at 1 uM up to 240 mins by LC-MS/MS analysis; type: ADME, cell-based, Hepatocyte; details: read-out: CLH
[16] = Elimination half life in human hepatic microsomes at 1 uM up to 90 mins by LC-MS/MS analysis; type: ADME, microsome; details: liver microsomes, read-out: beta t1/2
[17] = Intrinsic clearance in human hepatic microsomes at 1 uM up to 90 mins by LC-MS/MS analysis; type: ADME, microsome; details: liver microsomes, read-out: CLH
[18] = Elimination half life in human primary hepatocytes at 1 uM up to 240 mins by LC-MS/MS analysis; type: ADME, cell-based, Hepatocyte; details: read-out: beta t1/2
[19] = Intrinsic clearance in human primary hepatocytes at 1 uM up to 240 mins by LC-MS/MS analysis; type: ADME, cell-based, Hepatocyte; details: read-out: CLH
Mus musculus [20] = experiment: Anti-schizophrenic activity in NMRI mouse assessed as increase in D-serine levels in blood at 30 mg/kg, ip measured after 10 mins by capillary electrophoresis laser induced fluorescence method; type: functional
Mus musculus [21] = experiment: Anti-schizophrenic activity in NMRI mouse assessed as increase in D-serine levels in blood at 30 mg/kg, ip measured after 60 mins by capillary electrophoresis laser induced fluorescence method; type: functional
[22] = Drug level in blood of NMRI mouse assessed at 30 mg/kg, ip co-dosed with 30 mg/kg, ip D-serine measured after 10 mins; type: ADME, organism-based; details: read-out: Drug uptake
[23] = Drug level in blood of NMRI mouse assessed at 30 mg/kg, ip co-dosed with 30 mg/kg, ip D-serine measured after 60 mins; type: ADME, organism-based; details: read-out: Drug uptake

Chain of D-amino-acid oxidase (Sus scrofa, UniProt P00371) (P00371 whole entry): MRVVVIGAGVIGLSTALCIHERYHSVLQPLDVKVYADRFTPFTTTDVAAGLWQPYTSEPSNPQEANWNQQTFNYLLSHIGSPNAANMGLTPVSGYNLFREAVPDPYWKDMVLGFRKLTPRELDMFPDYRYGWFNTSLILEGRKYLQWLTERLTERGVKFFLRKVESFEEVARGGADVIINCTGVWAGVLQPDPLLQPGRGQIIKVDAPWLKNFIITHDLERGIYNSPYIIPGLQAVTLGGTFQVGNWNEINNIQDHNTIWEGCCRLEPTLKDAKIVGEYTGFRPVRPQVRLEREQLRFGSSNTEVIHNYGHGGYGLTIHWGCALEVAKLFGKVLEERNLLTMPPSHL

SMILES: Oc1n[nH]c2c(Cl)cccc12
IC50 (D-amino-acid oxidase [1]): 10100 nM
pKa [2]: 7.28
Kd (D-amino-acid oxidase [3]): 3310 nM

SMILES: Oc1n[nH]c2cccc(Cl)c12
inhibition (D-amino-acid oxidase [4]): 19%
pKa [2]: 7.51

SMILES: O=C1Nc2c(Cl)cccc2C1=O
IC50 (D-amino-acid oxidase [5]): 7870 nM
pKa [2]: 9.44

SMILES: Oc1n[nH]c2cccc(Br)c12
inhibition (D-amino-acid oxidase [4]): 34%
pKa [2]: 7.51

SMILES: O=c1[nH][nH]c2ccc(Br)cc12
Kd (D-amino-acid oxidase [3]): 3290 nM

SMILES: O=[N+]([O-])c1ccc2c(O)[nH]nc2c1
IC50 (D-amino-acid oxidase [1]): 1200 nM
pKa [2]: 6.52
Kd (D-amino-acid oxidase [3]): 4590 nM

SMILES: O=c1[nH][nH]c2ccccc12
pKa [2]: 8.16
Kd (D-amino-acid oxidase [3]): 4430 nM

SMILES: Cc1cccc2c1NC(=O)C2=O
IC50 (D-amino-acid oxidase [1]): 13100 nM
Kd (D-amino-acid oxidase [3]): 8230 nM

SMILES: Oc1cc(CCc2ccccc2)[nH]n1
inhibition (D-amino-acid oxidase [4]): 66%

Second part, led by results:

Kd (D-amino-acid oxidase [3]): 870 nM
SMILES: Oc1noc2cc(Cl)ccc12

Kd (D-amino-acid oxidase [3]): 1200 nM
SMILES: Oc1n[nH]c2ccc(F)cc12

IC50 (D-amino-acid oxidase [1]): 120 to 123 nM
pKa [2]: 7.84
Kd (D-amino-acid oxidase [3]): 1000 nM
Papp at 4 h [6]: 1.2 ×10⁻⁶ cm/s
R% [7]: 3.9%
Papp at 4 h [8]: 0.97 ×10⁻⁶ cm/s
R% [9]: 7.1%
Papp at 4 h [10]: 0.72 ×10⁻⁶ cm/s
R% [11]: 5.8%
half-life at […], 1 µM [12]: 1.33 h
CLint scaled at […], 1 µM [13]: 8.29 mL/min/kg
half-life at 1 µM [14]: 2.97 h
CLint scaled at 1 µM [15]: 20 mL/min/kg
half-life at […], 1 µM [16]: 3.04 h
CLint scaled at […], 1 µM [17]: 0.9 mL/min/kg
half-life at 1 µM [18]: 6.86 h
CLint scaled at 1 µM [19]: 2.78 mL/min/kg
concentration at 10 min [22]: 13.1 µM
concentration at 1 h [23]: 0.77 µM
SMILES: Oc1n[nH]c2cc(F)ccc12
Activity (Mus musculus [20]): 33%
Activity (Mus musculus [21]): 27%

pKa [2]: 7.53
Kd (D-amino-acid oxidase [3]): 780 nM
SMILES: Oc1n[nH]c2ccc(Cl)cc12

IC50 (D-amino-acid oxidase [1]): 418 nM
Kd (D-amino-acid oxidase [3]): 440 nM
SMILES: Oc1noc2ccccc12

IC50 (D-amino-acid oxidase [1]): 150 to 156 nM
pKa [2]: 7.59
Kd (D-amino-acid oxidase [3]): 2000 nM
Papp at 4 h [6]: 9.53 ×10⁻⁶ cm/s
R% [7]: 6.7%
Papp at 4 h [8]: 7.43 ×10⁻⁶ cm/s
R% [9]: 9.7%
Papp at 4 h [10]: 4.47 ×10⁻⁶ cm/s
R% [11]: 2.5%
half-life at […], 1 µM [12]: 0.942 h
CLint scaled at […], 1 µM [13]: 11.7 mL/min/kg
half-life at 1 µM [14]: 0.87 h
CLint scaled at 1 µM [15]: 68.2 mL/min/kg
half-life at […], 1 µM [16]: 3.6 h
CLint scaled at […], 1 µM [17]: 0.76 mL/min/kg
half-life at 1 µM [18]: 7.51 h
CLint scaled at 1 µM [19]: 2.54 mL/min/kg
SMILES: Oc1n[nH]c2cc(Cl)ccc12
